Test [1] concerns the target T1, PPARG (Homo sapiens, UniProt P37231).
T1 construct: endogenous in cells; host or cells: RT112/84 bladder cancer cells (FABP4-NLucP knock-in clone)
T1 sequence (P37231 1-477 isoform P37231-2): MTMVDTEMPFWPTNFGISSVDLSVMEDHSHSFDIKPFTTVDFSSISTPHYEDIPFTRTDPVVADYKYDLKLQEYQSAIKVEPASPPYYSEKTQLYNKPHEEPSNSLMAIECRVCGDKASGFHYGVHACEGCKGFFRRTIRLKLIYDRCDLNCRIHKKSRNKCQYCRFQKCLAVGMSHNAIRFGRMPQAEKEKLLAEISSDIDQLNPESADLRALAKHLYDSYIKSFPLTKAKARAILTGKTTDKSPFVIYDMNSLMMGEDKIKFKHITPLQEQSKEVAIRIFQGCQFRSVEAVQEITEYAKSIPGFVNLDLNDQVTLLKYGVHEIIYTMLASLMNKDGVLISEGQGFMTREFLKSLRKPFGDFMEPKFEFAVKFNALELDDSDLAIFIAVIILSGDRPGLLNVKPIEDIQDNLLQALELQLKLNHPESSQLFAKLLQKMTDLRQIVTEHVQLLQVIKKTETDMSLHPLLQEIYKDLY
The test is described as follows: RT112/84 FABP4-NLucP reporter gene assay, unstimulated. It is filed as cell-based. An excerpt:
Next, a PPARG reporter cell line was engineered to enable higher throughput assays to evaluate PPARG transactivation. Briefly, a destabilized NanoLuc luciferase reporter gene was inserted into the 3′-UTR of the FABP4 gene in the RT112/84 bladder cancer cell line using CRISPR/Cas9 mediated homology-directed repair (FIG. 4A).
RT112-FABP4-NLucP Reporter Gene Assay: Reporter cell line was generated by engineering NanoLuc gene into the 3′ UTR of FABP4 in RT112/84 cells using CRISPR/Cas9 guided genome engineering. Single cell clones were generated and the clone with the widest dynamic range selected for use. Assays were performed by seeding 384-well plates with ˜10,000 cells per well in MEMalpha containing 10% FBS and dosing compounds at indicated concentration using HP D300 digital dispenser (HP/Tecan). 18-24 hours after dosing with compound, cells were assayed using NanoGlo Luciferase Assay Reagent (Promega Madison, WI) and plates were read using EnVision Multilabel Reader (PerkinElmer Waltham, MA).
(In a reporter assay the amount or activity of a reporter protein is the signal.)

In test [2] the test system is PPARG target gene expression in UM-UC-9 cells. The test can be described thus: RNA sequencing of UM-UC-9 cells after 7 days dosing. It is filed as cell-based, human. The following applies: 500 nmol/L. As for the experimental part: Next, the effects of long-term dosing on the transcriptional profile of the PPARG-amplified cell line, UMUC-9, were evaluated. Briefly, UM-UC-9 cells were treated for 7 days with various PPARG modulators dosed at 500 nmol/L and gene expression was analyzed using RNA sequencing. […] Genes that were more abundantly expressed upon treatment with inverse-agonists included ALPP, SPINK4, and ALDH1A3 (FIG. 5). […] In summary, the in vitro pharmacological properties of known PPARG modulators have been characterized and two distinct chemotypes with bona-fide inverse-agonist activity in PPARG-activated bladder cancer cells were identified.
RNAseq analysis: RNA was isolated using RNEasy (Qiagen) and an RNAseq library was prepared using NEBNext Ultra Directional RNA Library Prep Kit for Illumina and NEBNext Multiplex Oligos for Illumina (New England BioLabs). RNAseq sequencing was performed using an Illumina MiSeq instrument according to the manufacturers protocol. Sequence data was analyzed using Firehose (Broad Institute, Cambridge MA) to map transcripts and calculate RPKM (SW780 cDNA expression) or TPM (UM-UC-9).
For UM-UC-9 RNAseq experiment, the resulting reads were used to calculate transcript abundance in units of TPM (transcripts per million) (18), which were then adjusted using TMM normalization (19) for comparison. […]

The test system of test [3] is UM-UC-9 cells. The test can be described thus: Kinetic proliferation assay (IncuCyte), percent of DMSO control. Conditions: 100 nmol/L; DMSO control at 50% confluency. The test is classed as cell-based, human. The text has this:
This assay was expanded to include an additional 8 representative bladder cancer cell lines, including cell lines with PPARG amplification, RXRA p.S427F mutation, activated gene signature, and control cell lines with low level expression of PPARG and target genes. […] Representative data for the UM-UC-9 cell line are shown in FIG. 6B, and is tabulated for the tested bladder cancer cell lines in Table 1. […] Similar results were obtained with these cell lines in parallel studies using clonogenic assays to quantify colony-forming ability (FIG. 10).
Proliferation Assays: To enable cell-counting experiments, cell lines were transduced with a lentiviral vector encoding nuclear-targeted GFP, TagGFP2-H2B (Evrogen), and stable pools generated following selection for puromycin resistance. […] For kinetic proliferation assays, 96-well plates (n 1% 4 per condition) were imaged and counted every two hours using IncuCyte Zoom (Essen BioScience). […] For endpoint assays to measure dose-response, cells were plated in 384-well plates, dosed with compound, and upon reaching approximately 70% to 90% confluence in control wells, cells were either counted using fluorescence imaging (Incu-Cyte Zoom) or incubated with CyQuant (Thermo Fisher) at the indicated time and plates were read with a fluorescent plate reader.

Test [4] concerns PPARG-activated pancreatic and colorectal cancer cell lines. The test can be described thus: Kinetic proliferation assay in pancreatic and colorectal cancer cell lines. The test is classed as cell-based. Conditions: 500 nM. An excerpt: To enable cell-counting, cell lines were transduced with a lentiviral vector encoding nuclear-targeted GFP (TagGFP2-H2B), and stable pools generated following selection for puromycin-resistance. Cell lines were maintained for at least 7 days following selection prior to expansion and seeding into 96-well plates for further analysis. For kinetic proliferation assays, 96-well plates were imaged in phase-contrast and green fluorescence mode every two hours using IncuCyte Zoom (Essen BioScience, Ann Arbor MI). Using IncuCyte software, the number of fluorescent nuclei were counted to monitor quantitative changes in cell number over time. Media and compounds were replaced approximately every 3-4 days.
DMSO treatment was also included as a vehicle control.

For the molecule `O=C(Nc1ccccc1)c1cc([N+](=O)[O-])ccc1Cl` [GW9662], the “effect on unstimulated reporter” value in test [1] is “minimal detectable effect”. Besides, in test [2], the “hierarchical clustering of gene expression signatures” value is listed as “cluster with vehicle-treated controls”. In test [3], the “effect on proliferation relative to control” value is listed as “no effect”. The “sensitivity of cell lines” value in test [4] was “not sensitive”.

For the origin of these results see US11896678B2, “Compositions and methods for treatment of peroxisome proliferator-activated receptor gamma (PPARG) activated cancer” (THE BROAD INSTITUTE, INC., priority 2017, dated 2024).
